Test results taken from patent US20090208455A1, “Method for Treating Polyglutamine Expansion Neurodegenerative Diseases” (INSERM (Institut National de la Sante et de la Recherche …, priority 2006, published 2009).
Entries after “also recorded” stand apart in the source; their conditions may differ. Peptide text beside a SMILES is read from it. * marks the point of attachment. Cbz = O=C(OCc1ccccc1)*

Experiments:
endogenous PML bodies = assay: Immunofluorescence of endogenous PML bodies in cadmium-treated cells expressing FL-74Q; assay type: cell-based; details: 2 μM cadmium
Procedure: (§1) Cell culture, transfections, MG132, INF and cadmium treatments: COS-7 cells were maintained in DMEM (Invitrogen) supplemented with 5% FBS, and penicillin-streptomycin (100 UI/ml; 100 μg/ml). Cell lines were transfected with Lipofectamine-PLUS reagents (Invitrogen) as prescribed. Unless otherwise specified, cells were harvested or analyzed by immunofluorescence 40-45 h post-transfection. β-INF. Recombinant human Interferon beta (Hu-IFN-b) is obtained from human fibroblast mRNA expressed in E. Coli. Its molecular weight is approximately 20 kDa. Recombinant human Interferon beta was supplied as a solution at 1×10^6 units/ml in PBS (phosphate buffered saline) containing 0.1% BSA (bovine serum albumin) and 10% glycerol. It was purchased from Sigma-Aldrich. Recombinant human Interferon beta (2000 UI/ml) was added to the culture medium after plating and during transfection. Cadmium chloride (Cadmium chloride hemi pentahydrate, Sigma Aldrich) (from 0.25 μM to 2 μM) was added during transfection. For proteasome inhibition, 5 μM MG132 was applied for 12 h, 25 h post-transfection. Cultures of post-mitotic neurons were prepared from the cortex of embryonic day 16 Wistar rats. Cells were extracted from the embryos and cultured with 1 μM MK801. Glial cell proliferation was stopped by adding 1 μM cytosine arabinoside after 3 h. […]

mutant ATXN7 aggregates = assay: Filter retardation assay of SDS-insoluble material in COS-7 cells; assay type: cell-based; details: 0.25 to 2 μM cadmium, filter assay on pellet fraction
Procedure: as §1, with “Unless otherwise specified, cells were harvested or analyzed by immunofluorescence 40-45 h post-transfection. β-INF.” left out, “transfection.” for “transfection. For proteasome inhibition, 5 μM MG132 was applied for 12 h, 25 h post-transfection. Cultures of post-mitotic neurons were prepared from the cortex of embryonic day 16 Wistar rats. Cells were extracted from the embryos and cultured with 1 μM MK801. Glial cell proliferation was stopped by adding 1 μM cytosine arabinoside after 3 h.”
Western blot and filter retardation assay: Cells were harvested in PBS, pelleted and lysed 30 min on ice in lysis buffer containing 50 mM Tris pH 8.8, 100 mM NaCl, 5 mM MgCl2, 0.5% NP40, 1 mM EDTA and 250 UI/ml benzonase (Merck) supplemented with a cocktail of protease inhibitors (Complete and Pefabloc, Roche). […] Supernatants (30 μg protein) were analyzed by Western blot. […] Protein concentrations (supernatant and pellet) were determined by Bio-Rad assay. […]

[1] = system: wild type mice (C57 black6); assay: Toxicity of beta-IFN injection protocol in wild type mice; assay type: in vivo; details: 10.000 Units per mouse, 3 injections per week intraperitoneally, 12 weeks, versus saline
Description: (§2) Protocol: 3 injections (intraperitoneally) per week, each of 10.000 Units murine beta IFN per mouse (from Sigma). Starting at 5 weeks of age, and during 10 weeks or more, until the animals die.
The inventors first tested the toxicity of such a treatment, as no publication described a treatment of young animals with IFN. In adult mice affected by multiple sclerosis and receiving injections of beta-IFN, the doses were 10.000 Units per mouse, over 14 weeks. The inventors chose to use the same doses and tested toxicity of the protocol in wild type mice of the same strain (C57 black6) than the KI mice, during 12 weeks. […] The inventors concluded that the dose used was not toxic, and decided to use 10.000 Units, 3 times a week, in the SCAT mouse model.

SCA7 KI mice [2] = assay: Life time of SCA7 knock-in mice; assay type: in vivo
Description: (§3) The inventors use the Spinocerebellar ataxia 7 (SCA7) knock-in mouse model developed in Huda Zhoghbi's lab (Yoo et al, 2003). This mouse model SCAT 266Q/5Q reproduces features of an infantile SCAT disease. The phenotype begins at 5 weeks of age with weight loss and then visual impairment. At about 8 weeks their locomotor functions are affected, and by 13-14 weeks of age the ataxic phenotype is severe with tremor, gait ataxia, muscular mass loss, kyphosis. The mice die between 14 and 19 weeks of age. In this severely affected mice model the inventors undertook to test a treatment with murine beta-IFN (Sigma).
as §2

SCA7 KI mice [3] = assay: Beam walking test in SCA7 knock-in mice; assay type: in vivo; details: 10.000 Units i.p. 3 times a week from 5 weeks of age; effect from 12 weeks of age, p inf to 0.005
Procedure: This test was performed each week, with 3 sessions per animal (maximal time 1 min.). The number of errors made on the wooden beam by each mouse, and the traveled total distance were noted. A mean of the 3 assays was calculated.
as §3
Protocol: 3 injections (intraperitoneally) per week, each of 10.000 Units murine beta IFN per mouse (from Sigma). Starting at 5 weeks of age, and during 10 weeks or more, until the animals die. […]
The mouse is placed at the end of the beam, at segment number 1 and the task is to walk towards the box placed at the other end. […] During the task, the inventors carefully monitored the numbers of errors done with the paws on the beam (front or rear paws). The ratio number of errors/distance traveled (EID) is calculated for each animal.

SCA7 KI mice [4] = assay: Locotronic test in SCA7 knock-in mice; assay type: in vivo; details: treated KI versus untreated KI
Procedure: Mice have been subjected to crossing the Locotronic apparatus, each week, 3 sessions with 15 min pause between sessions. FIG. 7A indicates the time in seconds for crossing the Locotronic and FIG. 7B indicates the numbers of errors (front paws, rear paws) made by the mice during the task. A mean value was calculated for the 3 sessions, for each group of animals.
as §3, with “(Sigma). […]” for “(Sigma).”
The Locotronic is designed to evaluated fine motor coordination in mice crossing the apparatus. […] On the side of the apparatus there are infra red sensors which measure errors made with front paws and rear paws (differentially scored). […] All the errors detected by the sensors are saved in a file as well as the time needed for crossing. […]

proteasome = assay: Proteasome inhibition by MG132 in COS-7 cells, Western blot of ATXN7; assay type: cell-based
Procedure: Cell culture, transfections, MG132, INF and cadmium treatments: COS-7 cells were maintained in DMEM (Invitrogen) supplemented with 5% FBS, and penicillin-streptomycin (100 UI/ml; 100 μg/ml). Cell lines were transfected with Lipofectamine-PLUS reagents (Invitrogen) as prescribed. […] Recombinant human Interferon beta (Hu-IFN-b) is obtained from human fibroblast mRNA expressed in E. Coli. Its molecular weight is approximately 20 kDa. Recombinant human Interferon beta was supplied as a solution at 1×10^6 units/ml in PBS (phosphate buffered saline) containing 0.1% BSA (bovine serum albumin) and 10% glycerol. It was purchased from Sigma-Aldrich. Recombinant human Interferon beta (2000 UI/ml) was added to the culture medium after plating and during transfection. Cadmium chloride (Cadmium chloride hemi pentahydrate, Sigma Aldrich) (from 0.25 μM to 2 μM) was added during transfection. For proteasome inhibition, 5 μM MG132 was applied for 12 h, 25 h post-transfection. Cultures of post-mitotic neurons were prepared from the cortex of embryonic day 16 Wistar rats. Cells were extracted from the embryos and cultured with 1 μM MK801. Glial cell proliferation was stopped by adding 1 μM cytosine arabinoside after 3 h. Primary cultures of cortical neurons were transfected 96 h after plating using Lipofectamine 2000 reagent (Invitrogen) according to the manufacturer's instructions.
Western blot and filter retardation assay: Cells were harvested in PBS, pelleted and lysed 30 min on ice in lysis buffer containing 50 mM Tris pH 8.8, 100 mM NaCl, 5 mM MgCl2, 0.5% NP40, 1 mM EDTA and 250 UI/ml benzonase (Merck) supplemented with a cocktail of protease inhibitors (Complete and Pefabloc, Roche). Total extracts were centrifuged at 13000 rpm for 10 min at 4° C. to separate soluble proteins from aggregates and membranes. Supernatants (30 μg protein) were analyzed by Western blot. Pellets were washed with PBS and further incubated 30 min on ice in a pellet buffer containing 20 mM Tris pH 8.0, 15 mM MgCl2 and 250 UI/ml benzonase. Protein concentrations (supernatant and pellet) were determined by Bio-Rad assay. […]

[5] = 5 μM MG132, COS-7 cells, Western blot

## O.O.O.O.O.[Cd+2].[Cd+2].[Cl-].[Cl-].[Cl-].[Cl-] [cadmium, Cadmium chloride hemi pentahydrate]
Endogenous PML bodies
  endogenous PML bodies: totally disrupted
Mutant ATXN7 aggregates
  aggregation of mutant ATXN7: dose-dependent

## beta-IFN: murine beta-IFN (Sigma) injected intraperitoneally in mice
[1]
  adverse effects: did not observe adverse effects
SCA7 KI mice [2]; 10.000 Units i.p. 3 times a week from 5 weeks of age, untreated SCA7 KI 15.1 weeks
  mean life time: 16.25 weeks
SCA7 KI mice [2]; treated versus untreated SCA7 KI mice
  extension of the life time: 7.5%
SCA7 KI mice [3]
  locomotor coordination (ratio number of errors/traveled distance): improves the locomotor coordination
SCA7 KI mice [4]; 10.000 Units i.p. 3 times a week from 5 weeks of age
  time for crossing the Locotronic: slower than the beta-interferon treated KI
SCA7 KI mice [4]; 10.000 Units i.p. 3 times a week, at 14 weeks of age
  number of errors in the Locotronic: tendency for the treated KI to make less errors

## CC(C)C[C@@H](C=O)NC(=O)[C@H](CC(C)C)NC(=O)[C@H](CC(C)C)NC(=O)OCc1ccccc1 [MG132] (Cbz-Leu-Leu-Leu-aldehyde)
proteasome; [5]
  amount of mutant ATXN7 FL-74Q coexpressed with PML IV: significantly increases; also recorded: increased
  amount of mutant ATXN7 FL-74Q expressed alone (absence of PML IV): significantly increases; also recorded: increased
proteasome; MG132 with β-INF treatment, COS-7 cells
  PML-dependent degradation of ATXN7 induced by β-INF: inhibited
